Measurements from patent publication US10294202B2, “Pyrrolidinones as herbicides” (FMC Corporation, priority 2013, dated 2019).

Legend:
corn = assay: Test A pre-/postemergence herbicide test; type: in vivo, Zea mays; settings: Postemergence
How it was run: (§1)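 Seeds sown in loam soil/sand blend received a preemergence directed soil spray of test chemical in non-phytotoxic solvent with surfactant; postemergence plants (2–10 cm, one- to two-leaf stage) were sprayed with the same formulation. After about 10 days in greenhouse, injury was rated visually versus untreated controls, 0 (no effect) to 100 (complete control).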

ryegrass, Italian = assay: Test A pre-/postemergence herbicide test; type: in vivo, Lolium multiflorum
How it was run: as §1

wheat = assay: Test A pre-/postemergence herbicide test; type: in vivo, Triticum aestivum; settings: Postemergence
How it was run: as §1

kochia = assay: Test A pre-/postemergence herbicide test; type: in vivo, Kochia scoparia
How it was run: as §1

giant foxtail = assay: Test A pre-/postemergence herbicide test; type: in vivo, Setaria faberii
How it was run: as §1

ducksalad = assay: Test B flooded paddy test; type: in vivo, Heteranthera limosa; settings: 500 g ai/ha, Flood; scale of 0 to 100 where 0 is no effect and 100 is complete control
How it was run: (§2)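 Paddy-water application at a 3 cm flood, young plants having two leaves. Water level maintained; greenhouse, 13–15 days; visual 0–100 control rating.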

ragweed = assay: Test A pre-/postemergence herbicide test; type: in vivo, Ambrosia elatior
How it was run: as §1

pigweed = assay: Test A pre-/postemergence herbicide test; type: in vivo, Amaranthus retroflexus
How it was run: as §1

blackgrass = assay: Test A postemergence herbicide test; type: in vivo, Alopecurus myosuroides
How it was run: (§3)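 Potted in loam soil/sand blend; postemergence application at 1–2 leaf stage (2–10 cm). Greenhouse ~10 d. Visual injury vs untreated, 0–100 scale; 100 = complete control.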

barnyardgrass [1] = assay: Test A pre-/postemergence herbicide test; type: in vivo, Echinochloa crus-galli
How it was run: as §1

galium = assay: Test A postemergence herbicide test; type: in vivo, Galium aparine
How it was run: as §3

rice = assay: Test B flooded paddy test; type: in vivo, Oryza sativa; settings: 500 g ai/ha, Flood; scale of 0 to 100 where 0 is no effect and 100 is complete control
How it was run: as §2

sedge, umbrella = assay: Test B flooded paddy test; type: in vivo, Cyperus difformis; settings: 500 g ai/ha, Flood; scale of 0 to 100 where 0 is no effect and 100 is complete control
How it was run: as §2

barnyardgrass [2] = assay: Test B flooded paddy test; type: in vivo, Echinochloa crus-galli; settings: 500 g ai/ha, Flood; scale of 0 to 100 where 0 is no effect and 100 is complete control
How it was run: as §2

[3] = 125 g ai/ha, visual rating on 0 to 100 scale (0 no effect, 100 complete control), approx. 10 days
[4] = 500 g ai/ha, 0 to 100 scale (0 no effect, 100 complete control)
[5] = Postemergence, 125 g ai/ha, visual rating on 0 to 100 scale (0 no effect, 100 complete control), approx. 10 days
[6] = Postemergence, 500 g ai/ha, 0 to 100 scale (0 no effect, 100 complete control)
[7] = Preemergence, 125 g ai/ha, 0 to 100 scale where 0 is no effect and 100 is complete control
[8] = Preemergence, 500 g ai/ha, visual rating on 0 to 100 scale (0 no effect, 100 complete control)
[9] = preemergence, 500 g ai/ha, 0 to 100 scale, 0 is no effect and 100 is complete control

SMILES	Plant response rating, Corn (corn; [3])	Plant response rating, Corn (corn; [4])	Plant response rating, Ryegrass, Italian (ryegrass, Italian; [5])	Plant response rating, Ryegrass, Italian (ryegrass, Italian; [6])	Plant response rating, Ryegrass, Italian (ryegrass, Italian; [7])	Ryegrass, Italian plant response rating (ryegrass, Italian; [8])	Plant response rating, Wheat (wheat; [3])	Plant response rating, Wheat (wheat; [4])	Plant response rating, Kochia (kochia; [5])	Plant response rating, Kochia (kochia; [6])	Plant response rating, Kochia (kochia; [7])	Plant response rating, Kochia (kochia; [9])	Plant response rating, Foxtail, Giant (giant foxtail; [5])	Plant response rating, Foxtail, Giant (giant foxtail; [6])	Plant response rating, Foxtail, Giant (giant foxtail; [7])	Plant response rating, Foxtail, Giant (giant foxtail; [9])	Plant response rating, Ducksalad (ducksalad)	Plant response rating, Ragweed (ragweed; [5])	Plant response rating, Ragweed (ragweed; [6])	Plant response rating, Ragweed (ragweed; [7])	also measured
CSc1cccc(C2CNC(=O)C2C(=O)Nc2cccc(F)c2F)c1 (centres unmarked) [Compound 289]	0	0	0	0	0	0	0	0	0	0	0	0	30	60	60	90	90	0	0	0	Plant response rating, Ragweed (ragweed; [9]): 0; Plant response rating, Pigweed (pigweed; [5]): 0; Plant response rating, Pigweed (pigweed; [6]): 0; Plant response rating, Pigweed (pigweed; [9]): 0; Plant response rating, Blackgrass (blackgrass; [3]): 0; Plant response rating, Blackgrass (blackgrass; [4]): 0; Plant response rating, Barnyardgrass (barnyardgrass [1]; [5]): 50; Plant response rating, Barnyardgrass (barnyardgrass [1]; [6]): 70; Plant response rating, Barnyardgrass (barnyardgrass [1]; [7]): 50; Plant response rating, Barnyardgrass (barnyardgrass [1]; [9]): 80; Plant response rating, Galium (galium; [3]): 0; Plant response rating, Galium (galium; [4]): 0; Plant response rating, Rice (rice): 20; Plant response rating, Sedge, Umbrella (sedge, umbrella): 0; Plant response rating, Barnyardgrass (barnyardgrass [2]): 30
CSc1cccc(C2CNC(=O)C2C(=O)Nc2ccc(F)c(F)c2F)c1 (centres unmarked) [Compound 290]	0	0	0	0	0	0	0	0	0	0	0	0	30	60	60	80	75	0	0	0	Plant response rating, Ragweed (ragweed; [9]): 0; Plant response rating, Pigweed (pigweed; [5]): 0; Plant response rating, Pigweed (pigweed; [6]): 10; Plant response rating, Pigweed (pigweed; [7]): 0; Plant response rating, Pigweed (pigweed; [9]): 0; Plant response rating, Blackgrass (blackgrass; [3]): 0; Plant response rating, Blackgrass (blackgrass; [4]): 0; Plant response rating, Barnyardgrass (barnyardgrass [1]; [5]): 50; Plant response rating, Barnyardgrass (barnyardgrass [1]; [6]): 80; Plant response rating, Barnyardgrass (barnyardgrass [1]; [7]): 60; Plant response rating, Barnyardgrass (barnyardgrass [1]; [9]): 80; Plant response rating, Galium (galium; [3]): 0; Plant response rating, Galium (galium; [4]): 0; Plant response rating, Rice (rice): 0; Plant response rating, Sedge, Umbrella (sedge, umbrella): 0; Plant response rating, Barnyardgrass (barnyardgrass [2]): 40
CSc1cccc(C2CNC(=O)C2C(=O)Nc2ccccc2Cl)c1 (centres unmarked) [Compound 291]	0	0	0	0	0	30	0	0	0	0	20	20	20	50	20	80	0	0	0	0	Plant response rating, Ragweed (ragweed; [9]): 0; Plant response rating, Pigweed (pigweed; [5]): 0; Plant response rating, Pigweed (pigweed; [6]): 0; Plant response rating, Pigweed (pigweed; [7]): 0; Plant response rating, Pigweed (pigweed; [9]): 0; Plant response rating, Blackgrass (blackgrass; [3]): 0; Plant response rating, Blackgrass (blackgrass; [4]): 0; Plant response rating, Barnyardgrass (barnyardgrass [1]; [5]): 40; Plant response rating, Barnyardgrass (barnyardgrass [1]; [6]): 60; Plant response rating, Barnyardgrass (barnyardgrass [1]; [7]): 20; Plant response rating, Barnyardgrass (barnyardgrass [1]; [9]): 60; Plant response rating, Galium (galium; [3]): 20; Plant response rating, Galium (galium; [4]): 0; Plant response rating, Rice (rice): 20; Plant response rating, Sedge, Umbrella (sedge, umbrella): 0; Plant response rating, Barnyardgrass (barnyardgrass [2]): 0
O=C1NCC(c2ccc(Cl)s2)C1C(=O)Nc1ccccc1F (centres unmarked) [Compound 292]	0	0	0	0	0	0	0	0	0	0	30	80	50	60	50	60	100	0	0	0	Plant response rating, Ragweed (ragweed; [9]): 0; Plant response rating, Pigweed (pigweed; [5]): 0; Plant response rating, Pigweed (pigweed; [6]): 0; Plant response rating, Pigweed (pigweed; [7]): 0; Plant response rating, Pigweed (pigweed; [9]): 0; Plant response rating, Blackgrass (blackgrass; [3]): 0; Plant response rating, Blackgrass (blackgrass; [4]): 0; Plant response rating, Barnyardgrass (barnyardgrass [1]; [5]): 50; Plant response rating, Barnyardgrass (barnyardgrass [1]; [6]): 70; Plant response rating, Barnyardgrass (barnyardgrass [1]; [7]): 70; Plant response rating, Barnyardgrass (barnyardgrass [1]; [9]): 80; Plant response rating, Galium (galium; [3]): 10; Plant response rating, Galium (galium; [4]): 20; Plant response rating, Rice (rice): 0; Plant response rating, Sedge, Umbrella (sedge, umbrella): 0; Plant response rating, Barnyardgrass (barnyardgrass [2]): 50
